pIC50: −log10 of the molar value. Structures can show the parent of a compound that is named as a salt.
What follows are compounds tested against cloned human NR1/NR2B ion channels (Homo sapiens (Human), UniProt Q05586+Q13224) (assay: HNR2BC: effects of test articles on cloned human NR1/NR2B ion channels expressed in mammalian cells (FLIPR calcium flux)). Settings: cloned human NR1/NR2B, Table 5.
Format: cell-based
Procedure: HNR2BC: Effects of Test Articles on Cloned Human NR1/NR2B Ion Channels Expressed in Mammalian Cells
NMDA receptors are ion channels that are highly permeable to Ca^2+ ions, rendering it possible to monitor NMDA receptor function using cell-based calcium flux assay. In this assay, co-agonists glutamate and glycine are added to cells heterologously expressing human GluN1/GluN2B NMDA receptors to initiate cellular Ca^2+ influx. The time course of the changes in intracellular calcium is measured using a fluorescent dye and a FLIPR (Fluorometric Imaging Plate Reader) device.
Twenty four hours before measurements, the expression of the NMDA receptors in the stable cell line is induced with Tet-On inducible system in the presence of a non-selective NMDA receptor blocker. On the day of the experiment, cell culture media is carefully washed and the cells are loaded with Calcium 5 Dye Kit (Molecular Devices) in dye loading buffer containing 137 mM NaCl, 4 mM KCl, 2 mM CaCl2, 0.5 mM MgCl2, 10 mM HEPES and 5 mM D-glucose; pH 7.4. After 1 h incubation at the room temperature, the dye is washed away with the assay buffer (137 mM NaCl, 4 mM KCl, 2 mM CaCl2, 0.01 mM EDTA, 10 mM HEPES and 5 mM D-glucose; pH 7.4) In the FLIPR TETRA reader, various concentrations of the test compounds are added to the cells for 5 min while fluorescence is monitored to detect potential agonist activity. Next, co-agonists, glutamate and glycine are added for another 5 minutes. The concentration of glutamate corresponding to ˜EC80 is used to maximize the assay's signal window and ability to detect NMDA receptor antagonists and negative allosteric modulators. A saturating concentration (10 μM) of glycine is also present in the assay. […] The fluorescent signal in the presence of test compounds is quantified and normalized to the signal defined by the appropriate control wells.

cloned human NR1/NR2B ion channels, sequence (Q13224 27-1484, other chains not shown): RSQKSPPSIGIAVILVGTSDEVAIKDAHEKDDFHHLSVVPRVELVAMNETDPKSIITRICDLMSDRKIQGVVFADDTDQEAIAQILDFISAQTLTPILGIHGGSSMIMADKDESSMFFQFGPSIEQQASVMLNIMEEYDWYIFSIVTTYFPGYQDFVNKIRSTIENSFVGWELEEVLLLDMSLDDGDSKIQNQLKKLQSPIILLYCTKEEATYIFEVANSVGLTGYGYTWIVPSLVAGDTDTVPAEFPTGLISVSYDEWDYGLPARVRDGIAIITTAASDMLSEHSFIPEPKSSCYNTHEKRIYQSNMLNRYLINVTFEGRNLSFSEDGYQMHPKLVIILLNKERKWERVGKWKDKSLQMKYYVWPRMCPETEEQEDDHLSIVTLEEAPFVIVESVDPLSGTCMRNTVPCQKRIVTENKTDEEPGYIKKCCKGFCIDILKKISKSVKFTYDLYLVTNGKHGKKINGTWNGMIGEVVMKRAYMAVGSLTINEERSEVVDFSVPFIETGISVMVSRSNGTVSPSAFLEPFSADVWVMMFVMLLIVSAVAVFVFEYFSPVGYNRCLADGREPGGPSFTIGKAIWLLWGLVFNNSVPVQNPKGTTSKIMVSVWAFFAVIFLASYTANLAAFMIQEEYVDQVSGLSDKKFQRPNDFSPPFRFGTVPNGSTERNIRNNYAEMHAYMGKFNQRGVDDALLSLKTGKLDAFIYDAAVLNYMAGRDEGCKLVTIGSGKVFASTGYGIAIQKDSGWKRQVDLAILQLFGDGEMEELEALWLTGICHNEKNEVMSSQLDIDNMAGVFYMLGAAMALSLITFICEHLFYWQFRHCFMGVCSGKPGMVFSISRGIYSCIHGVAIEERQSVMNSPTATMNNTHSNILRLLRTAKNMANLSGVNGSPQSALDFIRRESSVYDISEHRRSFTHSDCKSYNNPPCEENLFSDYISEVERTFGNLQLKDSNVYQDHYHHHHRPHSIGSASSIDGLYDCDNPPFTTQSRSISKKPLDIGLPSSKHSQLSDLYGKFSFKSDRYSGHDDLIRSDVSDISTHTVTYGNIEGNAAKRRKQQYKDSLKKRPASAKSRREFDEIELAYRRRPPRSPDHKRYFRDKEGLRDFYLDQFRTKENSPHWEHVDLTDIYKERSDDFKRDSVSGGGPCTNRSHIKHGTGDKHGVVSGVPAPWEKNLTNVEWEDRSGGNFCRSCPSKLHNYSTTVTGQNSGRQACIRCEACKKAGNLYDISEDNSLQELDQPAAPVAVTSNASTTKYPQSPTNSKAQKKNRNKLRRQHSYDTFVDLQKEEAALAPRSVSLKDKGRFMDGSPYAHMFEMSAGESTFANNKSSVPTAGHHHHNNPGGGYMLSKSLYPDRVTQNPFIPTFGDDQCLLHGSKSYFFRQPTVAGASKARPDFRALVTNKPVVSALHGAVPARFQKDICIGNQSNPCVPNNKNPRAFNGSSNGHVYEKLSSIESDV

**Q.** With `O=C(Cn1cc(Cl)c2ncc(-c3ccc(F)c(F)c3F)cc21)N1CC(F)(F)C1` [Example 50, 2-[3-Chloro-6-(2,3,4-trifluorophenyl)pyrrolo[3,2-b]pyridin-1-yl]-1-(3,3-difluoroazetidin-1-yl)ethanone] as the compound, how does the pIC50 read?
**A.** 7.40

**Q.** `Cc1cccc(-c2cnc3cc(C)n(CC(=O)NC4CC4)c3c2)c1` [Example 51, N-Cyclopropyl-2-[2-methyl-6-(m-tolyl)pyrrolo[3,2-b]pyridin-1-yl]acetamide] was tested. Which pIC50 did it give?
**A.** 7.20

**Q.** How did the pIC50 turn out when `Cc1cc2ncc(-c3ccccc3)cc2n1CC(=O)N1CCOCC1` [Example 52, 2-(2-Methyl-6-phenyl-pyrrolo[3,2-b]pyridin-1-yl)-1-morpholino-ethanone] was run?
**A.** 5.90

**Q.** With `Cc1cccc(-c2cnc3c(Cl)cn(CC(=O)N4CC(F)(F)C4)c3c2)c1` [Example 53, 2-[3-Chloro-6-(m-tolyl)pyrrolo[3,2-b]pyridin-1-yl]-1-(3,3-difluoroazetidin-1-yl)ethanone] as the compound, how does the pIC50 read?
**A.** 5.30

**Q.** How did the pIC50 turn out when `Cc1cccc(-c2cnc3c(Cl)cn(CC(=O)N4CC(F)C4)c3c2)c1` [Example 54, 2-[3-Chloro-6-(m-tolyl)pyrrolo[3,2-b]pyridin-1-yl]-1-(3-fluoroazetidin-1-yl)ethanone] was run?
**A.** 7.20

**Q.** How did the pIC50 turn out when `O=C(Cn1cc(Cl)c2ncc(-c3ccccc3)cc21)N1CC(F)(F)C1` [Example 55, 2-(3-Chloro-6-phenyl-pyrrolo[3,2-b]pyridin-1-yl)-1-(3,3-difluoroazetidin-1-yl)ethanone] was run?
**A.** 7.50

**Q.** With `O=C(Cn1cc(Cl)c2ncc(-c3ccccc3)cc21)N1CC(F)C1` [Example 56, 2-(3-Chloro-6-phenyl-pyrrolo[3,2-b]pyridin-1-yl)-1-(3-fluoroazetidin-1-yl)ethanone] as the compound, how does the pIC50 read?
**A.** 7.30

**Q.** How did the pIC50 turn out when `O=C(Cn1cc(Cl)c2ncc(-c3ccc(F)cc3)cc21)N1CC(F)(F)C1` [Example 57, 2-[3-Chloro-6-(4-fluorophenyl)pyrrolo[3,2-b]pyridin-1-yl]-1-(3,3-difluoroazetidin-1-yl)ethanone] was run?
**A.** 7.50

**Q.** How did the pIC50 turn out when `O=C(Cn1cc(Cl)c2ncc(-c3ccc(F)cc3)cc21)N1CC(F)C1` [Example 58, 2-[3-Chloro-6-(4-fluorophenyl)pyrrolo[3,2-b]pyridin-1-yl]-1-(3-fluoroazetidin-1-yl)ethanone] was run?
**A.** 7.60

**Q.** With `Cc1cc(Cn2ccc3ncc(-c4ccc(F)cc4C)cc32)no1` [Example 59, 3-[[6-(4-Fluoro-2-methyl-phenyl)pyrrolo[3,2-b]pyridin-1-yl]methyl]-5-methyl-isoxazole] as the compound, how does the pIC50 read?
**A.** 7.40

**Q.** How did the pIC50 turn out when `Cc1cc(Cn2ccc3ncc(-c4cccc(C(F)(F)F)c4)cc32)no1` [Example 60, 5-Methyl-3-[[6-[3-(trifluoromethyl)phenyl]pyrrolo[3,2-b]pyridin-1-yl]methyl]isoxazole] was run?
**A.** 7.00

**Q.** How did the pIC50 turn out when `Cc1cccc(-c2cnc3ccn(Cc4cc(C)on4)c3c2)c1` [Example 61, 5-Methyl-3-[[6-(m-tolyl)pyrrolo[3,2-b]pyridin-1-yl]methyl]isoxazole trifluoroacetate salt] was run?
**A.** 6.40

**Q.** `Cc1cc(Cn2ccc3ncc(-c4ccccc4C)cc32)no1` [Example 62, 5-Methyl-3-[[6-(o-tolyl)pyrrolo[3,2-b]pyridin-1-yl]methyl]isoxazole trifluoroacetate salt] was tested. Which pIC50 did it give?
**A.** 6.90

**Q.** How did the pIC50 turn out when `Cc1cc(Cn2ccc3ncc(-c4ccc(F)c(C)c4)cc32)no1` [Example 63, 3-[[6-(4-Fluoro-3-methyl-phenyl)pyrrolo[3,2-b]pyridin-1-yl]methyl]-5-methyl-isoxazole trifluoroacetate salt] was run?
**A.** 6.70

**Q.** How did the pIC50 turn out when `Cc1cc(Cn2ccc3ncc(-c4cc(F)cc(F)c4)cc32)no1` [Example 64, 3-[[6-(3,5-Difluorophenyl)pyrrolo[3,2-b]pyridin-1-yl]methyl]-5-methyl-isoxazole trifluoroacetate salt] was run?
**A.** 7.20

**Q.** `Cc1cc(Cn2ccc3ncc(-c4ccc(F)cc4)cc32)no1` [Example 65, 3-[[6-(4-Fluorophenyl)pyrrolo[3,2-b]pyridin-1-yl]methyl]-5-methyl-isoxazole trifluoroacetate salt] was tested. Which pIC50 did it give?
**A.** 7.10
